Experimental data: PMC2497451 (Anesthesia and analgesia, 2008)

What follows are compounds tested against T1, adult human muscle nicotinic acetylcholine receptor (nAChR, α2βεδ) (Homo sapiens, UniProt P02708+Q04844+Q07001) (assay: cell-based). Conditions: not given.
T1 sequence (P02708 21-457): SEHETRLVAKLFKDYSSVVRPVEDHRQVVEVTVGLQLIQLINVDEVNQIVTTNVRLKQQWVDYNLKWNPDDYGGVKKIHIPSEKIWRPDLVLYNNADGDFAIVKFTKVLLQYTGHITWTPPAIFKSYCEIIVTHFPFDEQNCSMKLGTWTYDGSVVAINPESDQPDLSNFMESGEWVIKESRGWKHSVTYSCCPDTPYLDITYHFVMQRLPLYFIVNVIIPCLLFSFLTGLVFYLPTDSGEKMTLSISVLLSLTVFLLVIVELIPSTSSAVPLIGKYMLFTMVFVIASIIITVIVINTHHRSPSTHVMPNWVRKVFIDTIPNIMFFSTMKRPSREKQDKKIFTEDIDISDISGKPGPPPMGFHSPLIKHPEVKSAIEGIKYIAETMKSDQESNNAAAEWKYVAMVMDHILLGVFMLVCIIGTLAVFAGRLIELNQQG
T1 sequence (Q04844 21-493): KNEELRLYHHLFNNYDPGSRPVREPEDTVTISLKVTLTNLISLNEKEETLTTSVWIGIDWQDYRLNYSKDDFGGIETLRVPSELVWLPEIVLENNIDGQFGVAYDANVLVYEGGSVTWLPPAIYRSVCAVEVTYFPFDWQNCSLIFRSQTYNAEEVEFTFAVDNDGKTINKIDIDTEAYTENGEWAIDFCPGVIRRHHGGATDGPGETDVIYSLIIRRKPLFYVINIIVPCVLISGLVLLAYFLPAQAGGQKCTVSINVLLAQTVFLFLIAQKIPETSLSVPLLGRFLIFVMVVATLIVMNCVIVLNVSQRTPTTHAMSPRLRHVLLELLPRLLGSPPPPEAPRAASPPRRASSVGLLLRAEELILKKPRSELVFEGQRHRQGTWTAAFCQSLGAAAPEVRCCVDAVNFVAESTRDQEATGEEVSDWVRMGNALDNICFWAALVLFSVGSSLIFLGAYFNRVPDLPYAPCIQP
T1 sequence (Q07001 22-517): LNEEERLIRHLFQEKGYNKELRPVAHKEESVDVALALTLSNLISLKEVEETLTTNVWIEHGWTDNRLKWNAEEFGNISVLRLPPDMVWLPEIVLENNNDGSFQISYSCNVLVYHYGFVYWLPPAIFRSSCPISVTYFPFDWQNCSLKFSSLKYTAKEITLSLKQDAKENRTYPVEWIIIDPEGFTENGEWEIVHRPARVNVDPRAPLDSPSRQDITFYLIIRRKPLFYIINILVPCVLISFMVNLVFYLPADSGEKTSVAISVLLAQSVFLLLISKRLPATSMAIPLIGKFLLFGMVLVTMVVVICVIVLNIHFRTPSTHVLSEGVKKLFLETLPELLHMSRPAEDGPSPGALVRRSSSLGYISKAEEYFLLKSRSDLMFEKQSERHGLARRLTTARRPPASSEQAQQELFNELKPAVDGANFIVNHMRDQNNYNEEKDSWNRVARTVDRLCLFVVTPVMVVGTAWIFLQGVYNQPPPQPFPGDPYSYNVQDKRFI
T1 sequence (P11230 24-501 partner): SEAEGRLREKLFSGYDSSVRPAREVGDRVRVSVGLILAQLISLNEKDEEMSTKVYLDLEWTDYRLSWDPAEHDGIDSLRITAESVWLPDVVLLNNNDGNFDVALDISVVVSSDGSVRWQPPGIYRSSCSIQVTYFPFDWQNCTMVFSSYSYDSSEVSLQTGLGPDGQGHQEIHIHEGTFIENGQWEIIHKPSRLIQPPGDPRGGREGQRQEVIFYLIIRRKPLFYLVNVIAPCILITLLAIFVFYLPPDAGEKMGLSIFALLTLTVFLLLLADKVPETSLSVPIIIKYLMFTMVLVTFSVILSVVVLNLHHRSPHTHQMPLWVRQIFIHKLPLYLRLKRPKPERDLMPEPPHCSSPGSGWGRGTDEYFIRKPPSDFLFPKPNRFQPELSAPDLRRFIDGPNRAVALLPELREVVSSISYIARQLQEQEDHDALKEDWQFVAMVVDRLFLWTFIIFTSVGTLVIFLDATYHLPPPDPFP

Compound | IC50
COc1ccc(C[C@@H]2c3cc(OC)c(OC)cc3CC[N@+]2(C)CCC(=O)OCCCCCOC(=O)CC[N@@+]2(C)CCc3cc(OC)c(OC)cc3[C@H]2Cc2ccc(OC)c(OC)c2)cc1OC [cisatracurium] | 10 ± 1 nM
COc1cc2c3cc1Oc1cc(ccc1O)C[C@@H]1c4c(cc(OC)c(O)c4Oc4ccc(cc4)C[C@@H]3N(C)CC2)CC[N+]1(C)C [(+)-tubocurarine] | 24 ± 2 nM
CC(=O)O[C@H]1C[C@@H]2CC[C@@H]3[C@H](CC[C@@]4(C)[C@H]3C[C@H]([N+]3(C)CCCCC3)[C@@H]4OC(C)=O)[C@@]2(C)C[C@@H]1[N+]1(C)CCCCC1 [pancuronium] | 6.3 ± 0.8 nM

What follows are compounds tested against T1, adult human muscle nicotinic acetylcholine receptor (nAChR, α2βεδ) (assay: not given). Conditions: 300 μM ACh, -50 mV, pH 7.3, room temperature; competitive.

Compound | IC50
C=CC[N+]1([C@H]2C[C@H]3[C@@H]4CC[C@H]5C[C@H](O)[C@@H](N6CCOCC6)C[C@]5(C)[C@H]4CC[C@]3(C)[C@H]2OC(C)=O)CCCC1 [rocuronium] | 17 ± 2 nM
CC(=O)O[C@H]1C[C@@H]2CC[C@@H]3[C@H](CC[C@@]4(C)[C@H]3C[C@H]([N+]3(C)CCCCC3)[C@@H]4OC(C)=O)[C@@]2(C)C[C@@H]1N1CCCCC1 [vecuronium] | 15 ± 2 nM
COc1ccc(CC2c3cc(OC)c(OC)cc3CC[N+]2(C)CCC(=O)OCCCCCOC(=O)CC[N+]2(C)CCc3cc(OC)c(OC)cc3C2Cc2ccc(OC)c(OC)c2)cc1OC (stereo not shown) [atracurium] | 17 ± 2 nM
COc1ccc2cc1Oc1cc3c(cc1OC)CC[N+](C)(C)[C@H]3Cc1ccc(cc1)Oc1c(OC)c(OC)cc3c1[C@@H](C2)[N+](C)(C)CC3 [metocurine] | 18 ± 2 nM
